System: norovirus
Assay: Anti-norovirus characteristics test (viral genome RNA by real-time PCR)
Conditions: comparative test results of Example 1
Protocol: A frozen stock solution of a norovirus isolated from stools of a patient and cryopreserved at −80° C. was thawed on ice. A hundred microliters of the norovirus stock solution was diluted ten times with phosphate-buffered saline (PBS) and was spun in a refrigerated centrifuge at 10,000 rpm for 20 minutes to remove a precipitate. The resulting “norovirus test solution” (950 μL solution) was used in the following examples.
The “real-time PCR” in the following examples was performed in accordance with a document “Detection Method for Norovirus” attached to a notice (Notice No. 1105001 from the Inspection and Safety Division, dated Nov. 5, 2003. See http://www.mhlw.go.jp/topics/syokuchu/kanren/kanshi/031105-1.html) issued by the Director of the Inspection and Safety Division, Department of Food Safety, Pharmaceutical and Food Safety Bureau, Ministry of Health, Labour and Welfare.
The real-time PCR counts the number of viral genomes in the states of […] in FIG. 1. In the following examples, only elimination of (the RNA of) a norovirus illustrated in (c) is rated as “efficacious”, and the survival of (the RNA of) a norovirus illustrated in (b) is rated as “inefficacious” even if the infectivity and proliferative capacity of the norovirus are lost. Nevertheless, an anti-norovirus composition according to the present invention is rated as more efficacious than conventional compositions. Taking the state of a norovirus illustrated in (b) into account, an anti-norovirus composition according to the present invention should therefore have still higher practical efficacy.
Twenty-five microliters of the norovirus test solution and 25 μL of each of the compositions (A1 to A5 or B1 to B7) were sufficiently mixed. […] After the diluted solution was subjected to treatments, such as RNA extraction and cDNA synthesis, viral genome RNAs remaining in the diluted solution was counted by real-time PCR. […] These measured values for the sample solutions and the corresponding controls were compared to determine the inhibition rates of the compositions for the norovirus.

Molecule	efficacy for a norovirus (in words)
O=C(O)c1cc(O)c(O)c(O)c1 [gallic acid]	no efficacy
CCCOC(=O)c1cc(O)c(O)c(O)c1 [propyl gallate, gallic acid propyl ester]	no efficacy
catechin	no efficacy
